Measured values: PMC12775434, “Ultra-large virtual screening unveils potent agonists of the neuromodulatory orphan receptor GPR139” (Nature Communications, 2025)
Values joined by “and” are separate entries in the source; they are usually repeats but may differ in a detail not shown here. Identical values can stand only once. Like-named read-outs stand apart in the source and are kept apart here.

Molecular target: T1, GPR139 (Homo sapiens, UniProt Q6DWJ6)
T1 sequence (Q6DWJ6 1-353): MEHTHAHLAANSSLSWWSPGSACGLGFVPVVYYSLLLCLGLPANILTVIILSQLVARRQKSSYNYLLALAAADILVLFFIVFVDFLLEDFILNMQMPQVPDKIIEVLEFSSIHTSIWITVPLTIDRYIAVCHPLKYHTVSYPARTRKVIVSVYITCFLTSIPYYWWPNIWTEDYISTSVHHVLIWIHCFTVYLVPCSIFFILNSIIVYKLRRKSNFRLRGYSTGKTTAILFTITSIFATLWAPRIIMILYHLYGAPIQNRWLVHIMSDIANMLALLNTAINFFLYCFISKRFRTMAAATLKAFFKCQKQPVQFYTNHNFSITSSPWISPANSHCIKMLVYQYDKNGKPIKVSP
Assay: Ca2+ mobilization assay, agonist mode, stable GPR139-CHOk1 cell line
Assay type: cell-based
Settings: for Emax: normalized to Lundbeck Cmp 1a
Summary of the method: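 Agonist activity of compounds is assessed in stably transfected CHO-K1 cells using the calcium dye Fluo-4 at 37 °C in HEPES-buffered HBSS (pH 7.4). Efficacy is expressed relative to the reference agonist Lundbeck Cmp 1a, set as 100%.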

[1] = log [Compound] M -5.5, replicate experiments
[2] = log [Compound] M -6.0, replicate experiments
[3] = log [Compound] M -6.5, replicate experiments
[4] = log [Compound] M -7.0, replicate experiments
[5] = log [Compound] M -7.5, replicate experiments
[6] = log [Compound] M -8.0, replicate experiments
[7] = log [Compound] M -8.5, replicate experiments
[8] = log [Compound] M -9.0, replicate experiments

SMILES: CC(NC(=O)CNC(=O)c1cccc(Cl)c1)c1ccccc1 (stereo not drawn) [JNJ-63533054, reference compound]
- Emax (Supplementary Table 4, read-out: Emax (%), Ca2+ mobilization): 100 ± 2%
- EC50 (Supplementary Table 4, read-out: pEC50, Ca2+ mobilization (converted)): 63.1 nM
- EC50 (Supplementary Table 7, enantiopure compounds, read-out: pEC50, Ca2+ mobilization (converted)): 15.8 nM
- Emax (Supplementary Table 7, read-out: Emax (%), Ca2+ mobilization): 119 ± 6%
- Ca2+ signal (% of Cmp 1a) [1]: 100 % of Cmp 1a
- Ca2+ signal (% of Cmp 1a) [2]: 91 % of Cmp 1a and 96 % of Cmp 1a and 95 % of Cmp 1a
- Ca2+ signal (% of Cmp 1a) [3]: 91 % of Cmp 1a and 78 % of Cmp 1a and 84 % of Cmp 1a
- Ca2+ signal (% of Cmp 1a) [4]: 68 % of Cmp 1a and 62 % of Cmp 1a and 69 % of Cmp 1a
- Ca2+ signal (% of Cmp 1a) [5]: 36 % of Cmp 1a and 26 % of Cmp 1a and 32 % of Cmp 1a
- Ca2+ signal (% of Cmp 1a) [6]: 25 % of Cmp 1a and 21 % of Cmp 1a and 8 % of Cmp 1a
- Ca2+ signal (% of Cmp 1a) (log [Compound] M -8.5, individual replicates, listed as JNJ (S)): 33 % of Cmp 1a and 17 % of Cmp 1a and 31 % of Cmp 1a
- Ca2+ signal (% of Cmp 1a) [7]: 11 % of Cmp 1a and 1.8 % of Cmp 1a and -4.36 % of Cmp 1a
- Ca2+ signal (% of Cmp 1a) (log [Compound] M -9.0, individual replicates, listed as JNJ (S)): 12 % of Cmp 1a and 6 % of Cmp 1a and 21 % of Cmp 1a
- Ca2+ signal (% of Cmp 1a) [8]: 0 % of Cmp 1a
- Ca2+ signal (% of Cmp 1a) (log [Compound] M -12.0, individual replicates): 0 % of Cmp 1a
- Ca2+ signal (% of Cmp 1a) (log [Compound] M = -5.5, individual replicate columns): 100 % of Cmp 1a
- Ca2+ signal (% of Cmp 1a) (log [Compound] M = -6.0, individual replicate columns): 96 % of Cmp 1a and 95 % of Cmp 1a and 91 % of Cmp 1a
- Ca2+ signal (% of Cmp 1a) (log [Compound] M = -6.5, individual replicate columns): 78 % of Cmp 1a and 84 % of Cmp 1a and 91 % of Cmp 1a
- Ca2+ signal (% of Cmp 1a) (log [Compound] M = -7.0, individual replicate columns): 62 % of Cmp 1a and 69 % of Cmp 1a and 68 % of Cmp 1a
- Ca2+ signal (% of Cmp 1a) (log [Compound] M = -7.5, individual replicate columns): 26 % of Cmp 1a and 32 % of Cmp 1a and 36 % of Cmp 1a
- Ca2+ signal (% of Cmp 1a) (log [Compound] M = -8.0, individual replicate columns): 21 % of Cmp 1a and 8 % of Cmp 1a and 25 % of Cmp 1a
- Ca2+ signal (% of Cmp 1a) (log [Compound] M = -8.5, individual replicate columns): 1.8 % of Cmp 1a and -4.36 % of Cmp 1a and 11 % of Cmp 1a
- Ca2+ signal (% of Cmp 1a) (log [Compound] M = -9.0, individual replicate columns): 0 % of Cmp 1a
- Ca2+ signal (% of Cmp 1a) (log [compound] M -4.5, individual replicates, listed as JNJ (S)): 119 % of Cmp 1a and 120 % of Cmp 1a and 108 % of Cmp 1a
- Ca2+ signal (% of Cmp 1a) (log [compound] M -5.0, individual replicates, listed as JNJ (S)): 106 % of Cmp 1a and 110 % of Cmp 1a and 122 % of Cmp 1a
- Ca2+ signal (% of Cmp 1a) (log [compound] M -5.5, individual replicates, listed as JNJ (S)): 100 % of Cmp 1a and 103 % of Cmp 1a and 143 % of Cmp 1a
- Ca2+ signal (% of Cmp 1a) (log [compound] M -6.0, individual replicates, listed as JNJ (S)): 91 % of Cmp 1a and 107 % of Cmp 1a and 141 % of Cmp 1a
- Ca2+ signal (% of Cmp 1a) (log [compound] M -6.5, individual replicates, listed as JNJ (S)): 93 % of Cmp 1a and 118 % of Cmp 1a and 122 % of Cmp 1a
- Ca2+ signal (% of Cmp 1a) (log [compound] M -7.0, individual replicates, listed as JNJ (S)): 76 % of Cmp 1a and 120 % of Cmp 1a and 95 % of Cmp 1a
- Ca2+ signal (% of Cmp 1a) (log [compound] M -7.5, individual replicates, listed as JNJ (S)): 65 % of Cmp 1a and 92 % of Cmp 1a and 71 % of Cmp 1a
- Ca2+ signal (% of Cmp 1a) (log [compound] M -8.0, individual replicates, listed as JNJ (S)): 46 % of Cmp 1a and 57 % of Cmp 1a and 54 % of Cmp 1a

SMILES: Cc1noc(CNC(=O)C2(C)CCCCN2C(=O)c2ccccc2)n1 (stereo not drawn) [Compound 4, CC1=NOC(CNC(=O)C2(C)CCCCN2C(=O)C=3C=CC=CC3)=N1]
- Ca2+ signal (% of Cmp 1a) (0.1 µM, individual replicates (Supplementary Figure 3)): -4.2 % of Cmp 1a and 0.43 % of Cmp 1a
- Ca2+ signal (% of Cmp 1a) (1 µM, individual replicates (Supplementary Figure 3)): 9.8 % of Cmp 1a and 4.1 % of Cmp 1a
- Ca2+ signal (% of Cmp 1a) (10 µM, individual replicates (Supplementary Figure 3)): 51.3 % of Cmp 1a and 47.8 % of Cmp 1a
- Ca2+ signal (% of Cmp 1a) (Agonist mode, individual replicates (Supplementary Figure 1)): 75 % of Cmp 1a and 80 % of Cmp 1a and 81 % of Cmp 1a
- EC50 (Supplementary Table 2, mean ± SEM, read-out: pEC50 Ca2+ (converted)): 3980 nM
- Emax (Supplementary Table 2, mean ± SEM, read-out: Emax (%) Ca2+): 100 ± 7%
- Ca2+ signal (% of Cmp 1a) (log [Compound] M -4.5, replicate experiments): 98 % of Cmp 1a and 82 % of Cmp 1a
- Ca2+ signal (% of Cmp 1a) (log [Compound] M -5.0, replicate experiments): 75 % of Cmp 1a and 63 % of Cmp 1a
- Ca2+ signal (% of Cmp 1a) [1]: 44 % of Cmp 1a and 46 % of Cmp 1a
- Ca2+ signal (% of Cmp 1a) [2]: 13 % of Cmp 1a and 24 % of Cmp 1a
- Ca2+ signal (% of Cmp 1a) [3]: 4.41 % of Cmp 1a and 3 % of Cmp 1a
- Ca2+ signal (% of Cmp 1a) [4]: 3.62 % of Cmp 1a and -1.16 % of Cmp 1a
- Ca2+ signal (% of Cmp 1a) [5]: -4.26 % of Cmp 1a and -2.55 % of Cmp 1a
- Ca2+ signal (% of Cmp 1a) [6]: -0.711 % of Cmp 1a and -3.49 % of Cmp 1a
- Ca2+ signal (% of Cmp 1a) [7]: 5.56 % of Cmp 1a and 4.65 % of Cmp 1a
- Ca2+ signal (% of Cmp 1a) [8]: -1.86 % of Cmp 1a and -5 % of Cmp 1a
- Ca2+ signal (% of Cmp 1a) (primary screen, 10 µM compound, agonist mode, three columns = independent experiments): 75 % of Cmp 1a and 80 % of Cmp 1a and 81 % of Cmp 1a
